Values of other authors in US6555519B2, “O-glucosylated benzamide SGLT2 inhibitors and method” (Bristol-Myers Squibb Company, priority 2000, dated 2003).

Tests used:
[1] = molecular target: T1, human SGLT2 (Homo sapiens, UniProt P31639); details: SGLT2 transporter; read-out: Km values for uptake
T1 sequence (P31639 1-672): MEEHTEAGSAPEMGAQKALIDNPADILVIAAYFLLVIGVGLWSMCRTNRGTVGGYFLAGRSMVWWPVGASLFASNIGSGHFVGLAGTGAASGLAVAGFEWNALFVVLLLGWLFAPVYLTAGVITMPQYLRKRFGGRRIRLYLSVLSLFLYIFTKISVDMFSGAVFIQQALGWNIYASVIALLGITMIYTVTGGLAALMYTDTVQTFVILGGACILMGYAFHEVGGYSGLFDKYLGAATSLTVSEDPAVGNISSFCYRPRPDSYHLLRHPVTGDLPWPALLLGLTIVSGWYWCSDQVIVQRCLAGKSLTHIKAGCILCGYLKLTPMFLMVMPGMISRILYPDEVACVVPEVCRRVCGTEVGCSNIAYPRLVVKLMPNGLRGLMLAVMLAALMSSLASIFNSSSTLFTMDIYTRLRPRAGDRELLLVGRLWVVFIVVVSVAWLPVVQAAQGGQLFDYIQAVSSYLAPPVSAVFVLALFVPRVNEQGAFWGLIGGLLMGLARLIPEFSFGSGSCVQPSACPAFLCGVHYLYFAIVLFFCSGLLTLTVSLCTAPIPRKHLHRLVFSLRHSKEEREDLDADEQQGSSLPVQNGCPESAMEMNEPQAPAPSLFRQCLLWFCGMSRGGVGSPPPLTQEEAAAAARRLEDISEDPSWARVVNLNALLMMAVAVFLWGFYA

[2] = molecular target: T2, human SGLT1 (Homo sapiens, UniProt P13866); details: SGLT1 transporter; read-out: Km values for uptake
T2 sequence (P13866 1-664): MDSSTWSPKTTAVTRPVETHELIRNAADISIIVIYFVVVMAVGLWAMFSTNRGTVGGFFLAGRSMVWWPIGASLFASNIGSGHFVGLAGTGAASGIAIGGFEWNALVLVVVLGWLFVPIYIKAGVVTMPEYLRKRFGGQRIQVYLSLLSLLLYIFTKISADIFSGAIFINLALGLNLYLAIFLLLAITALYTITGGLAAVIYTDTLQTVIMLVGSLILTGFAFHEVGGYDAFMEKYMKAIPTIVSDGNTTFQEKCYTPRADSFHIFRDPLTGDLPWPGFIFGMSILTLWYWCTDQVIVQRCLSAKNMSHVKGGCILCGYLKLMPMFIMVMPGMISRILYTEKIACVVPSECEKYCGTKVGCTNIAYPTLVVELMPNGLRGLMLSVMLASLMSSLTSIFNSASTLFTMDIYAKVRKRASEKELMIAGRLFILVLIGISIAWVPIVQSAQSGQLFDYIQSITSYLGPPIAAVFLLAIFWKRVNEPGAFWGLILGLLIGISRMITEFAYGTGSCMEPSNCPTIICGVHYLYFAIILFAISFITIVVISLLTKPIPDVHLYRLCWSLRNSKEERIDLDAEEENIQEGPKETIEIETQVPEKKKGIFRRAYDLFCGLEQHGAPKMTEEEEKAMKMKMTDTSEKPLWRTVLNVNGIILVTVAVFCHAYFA

In the case of `CO[C@H]1O[C@H](CO)[C@@H](O)[C@H](O)[C@H]1O` [AMG, α-methyl-D-glucopyranoside], the Km [1] is given as 1600 µM and the Km [2] is given as 400 µM.
